Test results: ChEMBL document CHEMBL1134901, “Synthesis and activity of novel HIV protease inhibitors with improved potency against multiple PI-resistant viral strains” (Bioorg Med Chem Lett, 2002)
pIC50: −log10 of the molar value.

Legend:
[1] = tested on: Human immunodeficiency virus 1; assay: In vitro inhibition of spread of viral infection using 4X mutant virus; assay type: functional; conditions: read-out: CIC95
MT4 = assay: Concentration required to inhibit the spread of viral infection in MT-4 human T-lymphoid cells infected by the NL4-3 virus; assay type: functional; conditions: read-out: CIC95
[2] = molecular target: T1, Human immunodeficiency virus type 1 protease (Human immunodeficiency virus 1, UniProt Q72874); assay: Inhibitory concentration against wild-type HIV-1 protease
[3] = Bioavailability in dog (dose 5 mg/kg p.o. and 2 mg/kg i.v.); assay type: ADME, organism-based, Canis lupus familiaris; conditions: in vivo, po
[4] = Half life in dogs administered perorally (5 mg/kg) and intravenously (2 mg/kg); assay type: ADME, organism-based, Canis lupus familiaris; conditions: dog, in vivo
[5] = Maximum concentration in dogs administered perorally (5 mg/kg) and intravenously (2 mg/kg); assay type: ADME, organism-based, Canis lupus familiaris; conditions: dog, in vivo, po
[6] = Area under curve in dogs administered perorally (5 mg/kg) and intravenously (2 mg/kg); assay type: ADME, organism-based, Canis lupus familiaris; conditions: dog, in vivo
[7] = Intrinsic clearance in human liver microsomes; assay type: ADME, Microsome
[8] = Plasma clearance in dogs administered perorally (5 mg/kg) and intravenously (2 mg/kg); assay type: ADME, organism-based, Canis lupus familiaris; conditions: dog, iv, read-out: Clp
[9] = tested on: Human immunodeficiency virus 1; assay: Potency against PI-resistant viral isolate construct HIV K-60C; assay type: functional; conditions: read-out: CIC95
[10] = tested on: Human immunodeficiency virus 1; assay: Potency against PI-resistant viral isolate construct HIV Q-60C; assay type: functional; conditions: read-out: CIC95
[11] = tested on: Human immunodeficiency virus 1; assay: Potency against PI-resistant virus HIV 4X; assay type: functional; conditions: read-out: CIC95
[12] = tested on: Human immunodeficiency virus 1; assay: Potency against PI-resistant virus HIV NL-4; assay type: functional; conditions: read-out: CIC95
Cytochrome P450 2D6 = Cytochrome P450 2D6 (Homo sapiens, UniProt P10635); assay: Inhibition of cytochrome P450 2D6; assay type: ADME
Sequence of Cytochrome P450 2D6 (P10635 whole entry): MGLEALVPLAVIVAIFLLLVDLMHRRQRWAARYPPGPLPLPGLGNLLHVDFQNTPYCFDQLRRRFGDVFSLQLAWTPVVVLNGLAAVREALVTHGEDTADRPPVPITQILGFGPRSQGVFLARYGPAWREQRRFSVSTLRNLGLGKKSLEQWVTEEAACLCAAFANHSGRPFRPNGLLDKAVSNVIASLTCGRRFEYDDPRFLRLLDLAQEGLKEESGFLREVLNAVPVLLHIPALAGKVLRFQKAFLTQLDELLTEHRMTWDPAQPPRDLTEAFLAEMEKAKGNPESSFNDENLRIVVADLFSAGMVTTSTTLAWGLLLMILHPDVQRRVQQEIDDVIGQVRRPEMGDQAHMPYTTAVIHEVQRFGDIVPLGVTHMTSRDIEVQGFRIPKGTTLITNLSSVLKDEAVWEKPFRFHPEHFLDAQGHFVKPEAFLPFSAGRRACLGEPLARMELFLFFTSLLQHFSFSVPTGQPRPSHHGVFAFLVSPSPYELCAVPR

Cytochrome P450 3A4 = Cytochrome P450 3A4 (Homo sapiens, UniProt P08684); assay: Inhibition of cytochrome P450 3A4; assay type: ADME
Sequence of Cytochrome P450 3A4 (P08684 whole entry): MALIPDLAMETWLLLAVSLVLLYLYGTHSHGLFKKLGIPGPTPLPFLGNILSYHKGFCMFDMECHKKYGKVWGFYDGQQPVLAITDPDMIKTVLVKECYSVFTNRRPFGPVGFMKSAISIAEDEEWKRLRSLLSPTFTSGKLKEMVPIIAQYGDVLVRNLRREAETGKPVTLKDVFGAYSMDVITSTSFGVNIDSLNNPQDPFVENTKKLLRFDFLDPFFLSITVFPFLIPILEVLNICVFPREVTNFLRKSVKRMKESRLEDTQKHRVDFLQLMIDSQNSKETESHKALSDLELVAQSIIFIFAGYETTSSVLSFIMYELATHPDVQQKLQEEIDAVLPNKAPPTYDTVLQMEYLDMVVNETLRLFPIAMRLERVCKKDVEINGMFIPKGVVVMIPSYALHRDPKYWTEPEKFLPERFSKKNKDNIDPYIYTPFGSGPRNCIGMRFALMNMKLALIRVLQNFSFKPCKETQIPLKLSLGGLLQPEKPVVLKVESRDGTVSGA

[13] = tested on: Human immunodeficiency virus 1; assay: Potency against PI-resistant viral isolate construct HIV V-18C; assay type: functional; conditions: read-out: CIC95
[14] = molecular target: T1, Human immunodeficiency virus type 1 protease; assay: Inhibitory concentration required to inhibit cleavage of a substrate by thewild-type HIV-1 protease enzyme

SMILES	IC95 [1] [nM]	IC95 (MT4) [nM]	pIC50 [2]	other results
CC(C)(c1cc2cnccc2o1)N1CCN(C[C@@H](O)C[C@@H](Cc2ccccc2)C(=O)N[C@H]2c3ccccc3OC[C@H]2O)[C@H](C(=O)NC2CC2)C1	250	62	9.22	–
CCNC(=O)[C@@H]1CN(C(C)(C)c2cc3cnccc3o2)CCN1C[C@@H](O)C[C@@H](Cc1ccccc1)C(=O)N[C@H]1c2ccccc2OC[C@H]1O	62	31	9.21	–
CC(C)(c1cc2cnccc2o1)N1CCN(C[C@@H](O)C[C@@H](Cc2ccccc2)C(=O)N[C@H]2c3ccccc3OC[C@H]2O)[C@H](C(=O)NC2CCCC2)C1	31	≤ 8	9.43	–
CC(C)CNC(=O)[C@@H]1CN(C(C)(C)c2cc3cnccc3o2)CCN1C[C@@H](O)C[C@@H](Cc1ccccc1)C(=O)N[C@H]1c2ccccc2OC[C@H]1O	125	15	9.40	–
CC(C)(C)CNC(=O)[C@@H]1CN(C(C)(C)c2cc3cnccc3o2)CCN1C[C@@H](O)C[C@@H](Cc1ccccc1)C(=O)N[C@H]1c2ccccc2OC[C@H]1O	500	31	8.94	–
CC(C)(c1cc2cnccc2o1)N1CCN(C[C@@H](O)C[C@@H](Cc2ccccc2)C(=O)N[C@H]2c3ccccc3OC[C@H]2O)[C@H](C(=O)NCC(F)(F)F)C1	≤ 8	≤ 8	10.15	bioavailability [3]: 65%; half-life [4]: 52 min; Cmax [5]: 17 µM; AUC [6]: 18.8 µM·h; CLint scaled [7]: 22 mL/min/kg; clearance [8]: 4.01 mL/min/kg; IC95 [9]: 250 nM; IC95 [10]: 62 nM; IC95 [11]: ≤ 8 nM; IC95 [12]: ≤ 8 nM; pIC50 (Cytochrome P450 2D6): 6.28; pIC50 (Cytochrome P450 3A4): 7.52; IC95 [13]: 62 nM
CC(C)(c1cc2cnccc2o1)N1CCN(C[C@@H](O)C[C@@H](Cc2ccccc2)C(=O)N[C@H]2c3ccccc3OC[C@H]2O)[C@H](C(=O)Nc2ccccc2)C1	> 1000	250	7.86	–
CC(C)(c1cc2cnccc2o1)N1CCN(C[C@@H](O)C[C@@H](Cc2ccccc2)C(=O)N[C@H]2c3ccccc3OC[C@H]2O)[C@H](C(=O)NCC(F)(F)C(F)(F)F)C1	62	≤ 8	9.85	–
CC(C)(c1cc2cnccc2o1)N1CCN(C[C@@H](O)C[C@@H](Cc2ccccc2)C(=O)N[C@H]2c3ccccc3OC[C@H]2O)[C@H](C(=O)NCc2ccccc2)C1	250	125	8.66	–
CC(C)(c1cc2cnccc2o1)N1CCN(C[C@@H](O)C[C@@H](Cc2ccccc2)C(=O)N[C@H]2c3ccccc3OC[C@H]2O)[C@H](C(=O)NCc2cccs2)C1	125	94	–	pIC50 [14]: 9.19
CC(C)(C)NC(=O)[C@@H]1CN(C(C)(C)c2cc3cnccc3o2)CCN1C[C@@H](O)C[C@@H](Cc1ccccc1)C(=O)N[C@H]1c2ccccc2OC[C@H]1O	31	≤ 8	10.10	Cmax [5]: 8.8 µM; CLint scaled [7]: 34 mL/min/kg; clearance [8]: 14.2 mL/min/kg; IC95 [9]: 500 nM; IC95 [10]: 125 nM; IC95 [11]: 16 nM; IC95 [12]: 9.2 nM; pIC50 (Cytochrome P450 2D6): 5.61; pIC50 (Cytochrome P450 3A4): 6.51; IC95 [13]: 125 nM
O=C(N[C@H]1c2ccccc2C[C@H]1O)[C@H](Cc1ccccc1)C[C@H](O)CN1CCN(Cc2cccnc2)C[C@H]1C(=O)NCC(F)(F)F	–	–	–	IC95 [9]: > 1000 nM; IC95 [10]: 62 nM; IC95 [11]: 125 nM; IC95 [12]: 62 nM; IC95 [13]: 500 nM
CC(C)(C)NC(=O)[C@@H]1CN(Cc2cccnc2)CCN1C[C@@H](O)C[C@@H](Cc1ccccc1)C(=O)N[C@H]1c2ccccc2C[C@H]1O	–	–	–	IC95 [9]: > 1000 nM; IC95 [10]: > 1000 nM; IC95 [11]: 400 nM; IC95 [12]: 50 nM; IC95 [13]: > 1000 nM
CC(C)(c1cc2cnccc2o1)N1CCN(C[C@@H](O)C[C@@H](Cc2ccccc2)C(=O)N[C@H]2c3ccccc3OC[C@H]2O)[C@H](C(=O)NCCC(F)(F)F)C1	500	62	8.80	–
CC(C)(c1cc2cnccc2o1)N1CCN(C[C@@H](O)C[C@@H](Cc2ccccc2)C(=O)N[C@H]2c3ccccc3OC[C@H]2O)[C@H](C(=O)NCC2CC2)C1	125	46	9.30	–
